How the values were obtained:
AR = test: Real-time RT-PCR, AR mRNA; format: cell-based, bovine; details: hormone treatment, 10 nM, C-MS medium; FIG. 13
Description: (§1) Trizor™ reagent (Invitrogen) was used to extract total RNA from cells, according to the manufacturer's protocol. RNA was […] in diethylpyrocarbonate-treated water at −80° C. Concentrations of the extracted RNA samples were measured using an ND-100 spectrophotometer (NanoDrop Technologies, Wilmington, Del., USA) and the purity was checked with an Agilent 2100 bioanalyzer (Agilent Technologies, Palo Alto, Calif., USA) prior to RT-PCR. RNA was reverse-transcribed into the first stranded cDNA using Superscript-II reverse transcriptase (Invitrogen). Total RNA (1 μg in 20 μl total volume) was primed with oligo (dT) 20 primers (Bioneer, Daejeon, Korea), and reverse transcription was carried out at 42° C. for 50 min and 72° C. for 15 min. Subsequently, 2 μl of the 10× diluted cDNA product and 10 pmoles of each gene-specific primer were used to perform PCR using a 7500 real-time PCR system (Applied Biosystems, Foster City, Calif., USA). Power SYBR® Green PCR Master Mix (Applied Biosystems) was used as the fluorescence source. Primers were designed with Primer 3 software (http://frodo.wi.mit.edu) using sequence information listed at the National Center for Biotechnology Information. […]

myotube formed cells = test: Lipid accumulation in myotube formed cells treated with hormone; format: cell-based; details: DMEM (phenol-red (−))/10% FBS, hormone for about 2 weeks; FIG. 5
Text: Then, lipid accumulation levels of the cells were confirmed.

Myogenin = test: Real-time RT-PCR, myogenin mRNA; format: cell-based, bovine; details: hormone treatment, 10 nM, C-MS medium; FIG. 13
Description: as §1

bovine MSCs = test: MSC proliferation, cells enumerated with hematocytometer; format: cell-based; details: MSC in C-MS or CDFBS, 10 nM hormone, vs respective control
Description: The cultured cells were harvested by trypsin-EDTA, and subcultured in wells of 6-well plates with DMEM supplemented with FBS after washing the collected cell precipitate. Cells were cultured for a day in the supplemented medium to allow for equal attachment in the culture dish. The next day the medium was removed and replaced with DMEM supplemented with 10% FBS, MS, FS and C-MS.
MSCs were cultured in DMEM supplemented with C-MS to observe the steroidal effect on the cultured muscle cells. E2, testosterone, or a combination of E2 and testosterone (all 10 nM) were added directly to each medium. Cells were enumerated under microscopic examination using a hematocytometer.
For MSC differentiation, cells were collected from a primary culture dish and subcultured. The cells in passage one were cultured in medium supplemented with FBS, MS, FS, or […] for three days, and cell numbers in each culture were enumerated.
MSC were subcultured in C-MS or CDFBS and treated with 10 nM of E2 or testosterone, or a combination of E2 and testosterone.

C2C12 myoblast cell line = test: C2C12 myoblast proliferation; format: cell-based; details: testosterone-treated C-MS and CDFBS
Text: In addition, the effect of different serum and steroids on the C2Cl2 myoblast cell line was also observed. The data generated were in agreement with those of bovine MSCs.

isolated MSCs = test: Lipid droplets (ORO) in MSCs in adipogenic medium with C-MS plus hormone; format: cell-based, bovine; details: hormone-treated vs untreated, FIGS. 17 and 18
Description: The cells were cultured in adiopogenic medium treated with E2, testosterone, or E2 and testosterone. The cells were stained with ORO to check the accumulation of lipid droplets.

FAT/CD36 [1] = test: Real-time RT-PCR, FAT/CD36 mRNA in adipogenic medium; format: cell-based, bovine; details: adipogenic medium with C-MS, hormone-treated; FIG. 19
Description: as §1

FAT/CD36 [2] = test: Immunocytochemistry, FAT/CD36 protein in adipogenic medium; format: cell-based, bovine; details: adipogenic medium with C-MS, hormone-treated; FIG. 20
Description: Isolated MSCs were cultured in a covered glass-bottom dish and allowed to differentiate into myotubes or to transdifferentiate into ALCs under different serum conditions. Then, the culture mediun was removed and cells were rinsed with PBS. PBS rinsing was also performed between all subsequent steps. Cells were fixed with 4% formaldehyde, permeabilized by 0.2% Triton X-100 and 3-4 drops of Image-iT™ FX signal enhancer (Invitrogen) was applied. Primary antibody (mouse monoclonal IgG1 Myogenin; sc-12732, rabbit polyclonal IgG CD36 sc-9154; Santa Cruz Biotechnology, Santa Cruz Calif., USA) was added and incubated at 4° C. in a humid environment overnight, and then incubated with secondary antibody (Alexa Fluor 488 goat anti-mouse SFX kit and Alexa Fluor 488 goat anti-rabbit SFX kit; Molecular Probes, Eugene, Oreg., USA) at room temperature for 1 hour. Each cell nucleus was counterstained by […] (DAPI; Sigma-Aldrich, St. Louis Mo., USA). Immunostained cells were observed using a fluorescence microscope (Nikon).
MSCs were transdifferentiated into ALCs by switching the culture medium into adipogenic medium. To observe the effect of different sera on transdifferentiation, cells were cultured in adipogenic media supplemented with different sera for 7 days and stained with ORO. […]

## C[C@]12CC[C@H]3[C@@H](CCC4=CC(=O)CC[C@@]43C)[C@@H]1CC[C@@H]2O [testosterone]
AR
  AR expression: up-regulated myogenin and AR expression significantly
Myotube formed cells
  lipid accumulation level in myotube: highest in myotube of the cells treated with 17β-estradiol, and decreases in the following order of [17β-estradiol+testosterone], testosterone, and the control group that was not treated with hormone
Myogenin
  myogenin expression: up-regulated myogenin and AR expression significantly
Bovine MSCs
  increment of cell proliferation: highest in the testosterone-treated culture followed by the combination E2 and testosterone, and E2 only
C2C12 myoblast cell line
  C2C12 cell proliferation: markedly increased
Isolated MSCs
  lipid droplets, ORO staining: slight increase

## C[C@]12CC[C@@H]3c4ccc(O)cc4CC[C@H]3[C@@H]1CC[C@@H]2O [E2, 17β-estradiol]
FAT/CD36 [1]
  FAT/CD36 mRNA expression: significant increase
Myotube formed cells
  lipid accumulation level in myotube: highest in myotube of the cells treated with 17β-estradiol, and decreases in the following order of [17β-estradiol+testosterone], testosterone, and the control group that was not treated with hormone
FAT/CD36 [2]
  FAT/CD36 protein expression: upregulated
Bovine MSCs
  increment of cell proliferation: highest in the testosterone-treated culture followed by the combination E2 and testosterone, and E2 only
Isolated MSCs
  lipid droplets, ORO staining: slight increase

Source: patent publication US20120028359A1, “PRODUCTION PROCESS OF GENDER-SPECIFIC SERUM AND BIOMARKER USING THE SERUM” (priority 2009, published 2012)
